Measured values published in patent US11053246B2, “Substituted tricyclic compounds as FGFR inhibitors” (Incyte Corporation, priority 2012, dated 2021).

Experiments:
Type in all cases: biochemical
[1] = biological target: FGFR3 (Homo sapiens (Human), UniProt P22607); test: FGFR Enzymatic Assay (FRET peptide phosphorylation), FGFR3; conditions: FGFR3 enzyme (Millipore), ATP 140 μM, 25° C., 1 hr
Procedure: (§1) The inhibitor potency of the exemplified compounds was measured in an enzyme assay that measures peptide phosphorylation using FRET measurements to detect product formation. Inhibitors were serially diluted in DMSO and a volume of 0.5 μL was transferred to the wells of a 384-well plate. For FGFR3, a 10 μL volume of FGFR3 enzyme (Millipore) diluted in assay buffer (50 mM HEPES, 10 mM MgCl2, 1 mM EGTA, 0.01% Tween-20, 5 mM DTT, pH 7.5) was added to the plate and pre-incubated for 5-10 minutes. Appropriate controls (enzyme blank and enzyme with no inhibitor) were included on the plate. […] The plate was incubated at 25° C. for 1 hr. […] The plate was allowed to equilibrate for ˜1 hr before scanning the wells on a PheraStar plate reader (BMG Labtech).
(§2) GraphPad prism3 was used to analyze the data. The IC50 values were derived by fitting the data to the equation for a sigmoidal dose-response with a variable slope. Y=Bottom+(Top−Bottom)/(1+10^((Log IC50−X)*HillSlope)) where X is the logarithm of concentration and Y is the response.

[2] = biological target: FGFR2 (Homo sapiens (Human), UniProt P21802); test: FGFR Enzymatic Assay (FRET peptide phosphorylation), FGFR2; conditions: FGFR2 enzyme 0.01 nM, ATP 100 μM, 25° C., 1 hr
Sequence of FGFR2 (P21802 22-821): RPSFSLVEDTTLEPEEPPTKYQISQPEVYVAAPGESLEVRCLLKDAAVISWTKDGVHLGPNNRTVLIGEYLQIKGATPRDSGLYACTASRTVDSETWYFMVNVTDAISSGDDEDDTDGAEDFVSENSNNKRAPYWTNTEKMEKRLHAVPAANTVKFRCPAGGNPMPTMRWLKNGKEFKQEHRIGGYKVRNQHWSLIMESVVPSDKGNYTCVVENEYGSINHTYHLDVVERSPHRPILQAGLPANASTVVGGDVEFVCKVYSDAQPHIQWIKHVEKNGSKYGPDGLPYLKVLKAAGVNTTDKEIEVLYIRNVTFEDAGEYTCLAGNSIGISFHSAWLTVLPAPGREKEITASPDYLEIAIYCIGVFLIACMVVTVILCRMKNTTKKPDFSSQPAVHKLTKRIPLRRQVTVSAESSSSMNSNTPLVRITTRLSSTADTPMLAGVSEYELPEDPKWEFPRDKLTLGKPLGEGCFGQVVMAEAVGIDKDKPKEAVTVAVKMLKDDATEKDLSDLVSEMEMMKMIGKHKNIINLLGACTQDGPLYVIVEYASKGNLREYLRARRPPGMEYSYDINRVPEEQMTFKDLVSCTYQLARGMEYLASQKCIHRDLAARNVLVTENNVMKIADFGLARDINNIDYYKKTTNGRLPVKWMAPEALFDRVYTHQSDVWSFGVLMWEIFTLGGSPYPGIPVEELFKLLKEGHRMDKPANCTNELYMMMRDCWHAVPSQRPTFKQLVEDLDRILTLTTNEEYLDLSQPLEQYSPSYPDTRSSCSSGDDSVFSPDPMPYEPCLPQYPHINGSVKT
Procedure: as §1
The enzymes were purchased from Millipore or Invitrogen.
as §2

[3] = biological target: FGFR1 (Homo sapiens (Human), UniProt P11362); test: FGFR Enzymatic Assay (FRET peptide phosphorylation), FGFR1; conditions: FGFR1 enzyme 0.02 nM, ATP 210 μM, 25° C., 1 hr
Sequence of FGFR1 (P11362 22-822): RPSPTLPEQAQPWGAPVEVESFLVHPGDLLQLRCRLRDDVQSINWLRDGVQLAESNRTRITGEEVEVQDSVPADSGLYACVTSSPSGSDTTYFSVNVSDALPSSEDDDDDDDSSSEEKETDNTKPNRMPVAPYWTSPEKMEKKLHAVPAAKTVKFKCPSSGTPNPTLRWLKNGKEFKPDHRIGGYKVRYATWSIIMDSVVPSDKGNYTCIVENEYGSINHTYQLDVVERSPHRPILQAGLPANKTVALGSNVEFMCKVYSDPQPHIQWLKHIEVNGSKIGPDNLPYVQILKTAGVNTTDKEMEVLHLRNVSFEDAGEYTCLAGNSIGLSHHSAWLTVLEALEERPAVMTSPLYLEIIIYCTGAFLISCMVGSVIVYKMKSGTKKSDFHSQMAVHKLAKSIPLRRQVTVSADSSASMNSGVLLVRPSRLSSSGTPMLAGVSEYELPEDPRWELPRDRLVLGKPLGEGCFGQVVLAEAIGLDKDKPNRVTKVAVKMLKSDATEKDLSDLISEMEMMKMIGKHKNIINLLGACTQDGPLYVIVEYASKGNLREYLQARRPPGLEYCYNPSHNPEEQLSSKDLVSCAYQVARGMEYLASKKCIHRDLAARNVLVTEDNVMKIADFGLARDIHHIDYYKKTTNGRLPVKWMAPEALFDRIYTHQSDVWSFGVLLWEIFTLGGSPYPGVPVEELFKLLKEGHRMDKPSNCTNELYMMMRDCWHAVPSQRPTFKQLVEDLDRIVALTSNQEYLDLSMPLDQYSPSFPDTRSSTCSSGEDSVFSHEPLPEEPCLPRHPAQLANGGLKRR

Sequence of FGFR3 (P22607 23-806): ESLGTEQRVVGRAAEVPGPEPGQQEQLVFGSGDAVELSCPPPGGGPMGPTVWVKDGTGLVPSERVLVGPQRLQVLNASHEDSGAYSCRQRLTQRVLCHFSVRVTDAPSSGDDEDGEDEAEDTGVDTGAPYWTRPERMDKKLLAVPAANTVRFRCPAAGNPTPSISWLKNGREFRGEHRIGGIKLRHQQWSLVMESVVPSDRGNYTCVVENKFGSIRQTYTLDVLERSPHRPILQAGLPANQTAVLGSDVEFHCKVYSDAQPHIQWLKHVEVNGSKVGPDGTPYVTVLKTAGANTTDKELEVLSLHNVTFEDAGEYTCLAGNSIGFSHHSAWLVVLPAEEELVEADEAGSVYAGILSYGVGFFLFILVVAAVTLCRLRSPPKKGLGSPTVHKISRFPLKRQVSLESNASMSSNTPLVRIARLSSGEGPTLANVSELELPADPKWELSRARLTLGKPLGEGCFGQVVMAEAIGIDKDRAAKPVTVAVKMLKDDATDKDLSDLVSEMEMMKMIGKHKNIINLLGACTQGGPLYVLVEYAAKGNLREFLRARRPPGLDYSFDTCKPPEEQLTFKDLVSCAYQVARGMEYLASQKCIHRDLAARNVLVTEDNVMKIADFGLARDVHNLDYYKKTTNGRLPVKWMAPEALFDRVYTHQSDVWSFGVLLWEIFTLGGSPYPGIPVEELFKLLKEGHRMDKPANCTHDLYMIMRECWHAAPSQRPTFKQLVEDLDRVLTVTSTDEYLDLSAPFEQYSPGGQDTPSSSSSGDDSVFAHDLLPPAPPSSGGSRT

- IC50 [1]: < 100 nM
- IC50 [2]: < 100 nM
- IC50 [3]: < 100 nM
Compound: CCN1C(=O)N(c2c(F)c(OC)cc(OC)c2Cl)Cc2cnc3c(c21)CC(=O)N3 [Example 63, 3-(2-chloro-6-fluoro-3,5-dimethoxyphenyl)-1-ethyl-3,4,7,9-tetrahydro-1H-pyrrolo[3′,2′:5,6]pyrido[4,3-d]pyrimidine-2,8-dione]
